Assay results as given in ChEMBL document CHEMBL5233229, “Recent advances in the development of ubiquitin-specific-processing protease 7 (USP7) inhibitors” (Eur J Med Chem, 2020).

What follows are molecules tested against T1, Ubiquitin carboxyl-terminal hydrolase 7 (Homo sapiens, UniProt Q93009) (assay: Inhibition of human USP7 using Ub-AMC as substrate).
T1 sequence (Q93009 whole entry): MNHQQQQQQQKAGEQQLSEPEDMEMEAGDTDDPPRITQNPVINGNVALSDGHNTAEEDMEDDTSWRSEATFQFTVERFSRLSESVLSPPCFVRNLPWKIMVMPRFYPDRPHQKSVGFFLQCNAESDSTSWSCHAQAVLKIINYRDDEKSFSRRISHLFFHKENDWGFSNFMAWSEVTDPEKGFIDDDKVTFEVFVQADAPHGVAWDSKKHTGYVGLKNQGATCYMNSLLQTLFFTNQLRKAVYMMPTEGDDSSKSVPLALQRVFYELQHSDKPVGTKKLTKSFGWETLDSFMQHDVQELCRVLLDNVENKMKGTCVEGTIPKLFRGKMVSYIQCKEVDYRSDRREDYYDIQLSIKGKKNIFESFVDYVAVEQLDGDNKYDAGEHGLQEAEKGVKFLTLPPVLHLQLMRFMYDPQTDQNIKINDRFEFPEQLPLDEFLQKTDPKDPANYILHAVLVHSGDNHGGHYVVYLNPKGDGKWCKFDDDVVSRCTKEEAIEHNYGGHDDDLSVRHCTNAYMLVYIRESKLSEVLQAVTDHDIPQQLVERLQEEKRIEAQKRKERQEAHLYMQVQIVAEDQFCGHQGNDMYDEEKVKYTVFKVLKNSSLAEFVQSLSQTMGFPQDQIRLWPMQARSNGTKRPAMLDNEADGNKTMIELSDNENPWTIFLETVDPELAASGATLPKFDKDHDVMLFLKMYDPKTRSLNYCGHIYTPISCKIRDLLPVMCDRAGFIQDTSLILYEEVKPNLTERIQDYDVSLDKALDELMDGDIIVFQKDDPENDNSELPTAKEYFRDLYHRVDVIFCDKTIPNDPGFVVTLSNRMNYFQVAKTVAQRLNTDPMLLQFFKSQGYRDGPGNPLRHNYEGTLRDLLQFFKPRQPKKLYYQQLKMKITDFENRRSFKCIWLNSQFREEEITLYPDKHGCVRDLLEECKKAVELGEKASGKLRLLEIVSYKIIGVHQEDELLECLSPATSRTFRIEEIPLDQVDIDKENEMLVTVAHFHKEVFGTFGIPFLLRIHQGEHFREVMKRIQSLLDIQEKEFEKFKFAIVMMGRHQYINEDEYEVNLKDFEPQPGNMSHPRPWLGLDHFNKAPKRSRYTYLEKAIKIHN

Row | SMILES | IC50
1 | C[C@H](CC(=O)N1CCC(O)(Cn2cnc3cc(NC(=O)CCN(C)C)ccc3c2=O)CC1)c1ccccc1 | 0.13 µM
2 | C[C@H](CC(=O)N1CCC(O)(Cn2cnc3cc(Cl)ccc3c2=O)CC1)c1ccccc1 | 0.42 µM

More lines, now with the values ahead:

Row | IC50 | SMILES
3 | 12 µM | O=C(CCc1ccccc1)N1CCC(O)(Cn2cnc3cc(Cl)ccc3c2=O)CC1
4 | 0.35 µM | CC(CC(=O)N1CCC(O)(Cn2cnc3cc(NC(=O)CCN4CCCCC4)ccc3c2=O)CC1)c1ccccc1 (stereo not drawn)

What follows are molecules tested against T1, Ubiquitin carboxyl-terminal hydrolase 7 (assay: Inhibition of human USP7 using ubiquitin-Rh110 as substrate incubated for 23 to 45 mins by fluorescence based assay).

Row | SMILES | IC50
5 | Cc1ccc2[nH]ncc2c1-c1cccc(C(=O)N2CCC(O)(Cn3cnn4cccc4c3=O)CC2)c1 | 1 µM
6 | O=C(c1ccc(Cn2cnc3ccccc32)cc1)N1CCC(O)(Cn2cnn3cccc3c2=O)CC1 | 1 µM
7 | CCC(Cc1ccccc1)C(=O)N1CCC(O)(Cn2cnn3cccc3c2=O)CC1 (stereo not drawn) | 1 µM
8 | Cc1cc(C)n(Cc2ccc(C(=O)N3CCC(O)(Cn4cnn5cccc5c4=O)CC3)cc2)n1 | 1 µM
9 | Cc1ccc2c(=O)n(CC3(O)CCN(C(=O)C(C)Cc4ccccc4)CC3)cnn12 (stereo not drawn) | 1 µM
10 | O=C(c1cccc(-c2ccc3c(c2)OCO3)c1)N1CCC(O)(Cn2cnn3cccc3c2=O)CC1 | 1 µM
11 | O=C(c1cccc(-c2ccccc2F)c1)N1CCC(O)(Cn2cnn3cccc3c2=O)CC1 | 1 µM
12 | Cc1cc(C(F)(F)F)nn1Cc1ccc(C(=O)N2CCC(O)(Cn3cnn4cccc4c3=O)CC2)cc1 | 1 µM
13 | Cc1ccc2c(=O)n(CC3(O)CCN(C(=O)CC(C)c4ccccc4)CC3)cnn12 (stereo not drawn) | < 1 µM
14 | O=C(c1ccc(-c2cnc3ccccc3c2)cc1)N1CCC(O)(Cn2cnn3cccc3c2=O)CC1 | 1 µM
15 | O=C(c1cccc(-c2ccc3ncccc3c2)c1)N1CCC(O)(Cn2cnn3cccc3c2=O)CC1 | 1 µM
16 | O=C(c1cccc(-c2ccc3scnc3c2)c1)N1CCC(O)(Cn2cnn3cccc3c2=O)CC1 | 1 µM
17 | O=C(c1ccc(-c2ccc(C(=O)N3CCC(O)(Cn4cnn5cccc5c4=O)CC3)c(Cl)c2)cc1)N1CCCCC1 | 1 µM
18 | Cc1ccc2cc(-c3ccc(C(=O)N4CCC(O)(Cn5cnn6cccc6c5=O)CC4)cc3)ccc2n1 | 1 µM
19 | O=C(c1ccccc1)c1ccc(C(=O)N2CCC(O)(Cn3cnn4cccc4c3=O)CC2)cc1 | 1 µM
20 | CCN(c1ccccc1)c1ccc(C(=O)N2CCC(O)(Cn3cnn4cccc4c3=O)CC2)cc1 | 1 µM
21 | O=C(c1cccc(-c2cccc(Cl)c2)c1)N1CCC(O)(Cn2cnn3cccc3c2=O)CC1 | 1 µM
22 | CC(C)(C)C(Cc1ccccc1)C(=O)N1CCC(O)(Cn2cnn3cccc3c2=O)CC1 (stereo not drawn) | 1 µM
23 | Cn1c(-c2cccc(C(=O)N3CCC(O)(Cn4cnn5cccc5c4=O)CC3)c2)cc2ccccc21 | < 1 µM
24 | Cc1cc2c(=O)n(CC3(O)CCN(C(=O)CC(C)c4ccccc4)CC3)cnn2c1 (stereo not drawn) | 1 µM
25 | O=C(Nc1cc2c(=O)n(CC3(O)CCN(C(=O)C4CC4)CC3)cnn2c1)c1csc(-c2ccccc2)n1 | 1 µM
26 | Cc1ccc(-c2ncc3c(=O)n(CC4(O)CCN(C(=O)CC(C)n5cccn5)CC4)cnn23)cc1 (stereo not drawn) | 1 µM
27 | Cc1ccccc1-c1cccc(C(=O)N2CCC(O)(Cn3cnn4cccc4c3=O)CC2)c1 | 1 µM
28 | O=C(c1ccc(Cn2nnc3ccccc32)cc1)N1CCC(O)(Cn2cnn3cccc3c2=O)CC1 | 1 µM
29 | Cc1ccc(-c2ncc3c(=O)n(CC4(O)CCN(C(=O)C[C@H](C)n5cccn5)CC4)cnn23)cc1 | 1 µM
30 | Cc1ccc(-c2cccc(C(=O)N3CCC(O)(Cn4cnn5cccc5c4=O)CC3)c2)cc1 | 1 µM
31 | CC(=O)Nc1cc2c(=O)n(CC3(O)CCN(C(=O)C[C@@H](C)c4ccccc4)CC3)cnn2c1 | < 1 µM
32 | NC(=O)c1ccc(-c2cccc(C(=O)N3CCC(O)(Cn4cnn5cccc5c4=O)CC3)c2)cc1 | 1 µM
33 | CC(CC(=O)N1CCC(O)(Cn2cnn3cc(Cl)cc3c2=O)CC1)c1ccccc1 (stereo not drawn) | 1 µM

The remaining lines, values ahead:

Row | IC50 | SMILES
34 | 1 µM | O=C(c1ccc(S(=O)(=O)c2ccccc2)cc1)N1CCC(O)(Cn2cnn3cccc3c2=O)CC1
35 | 1 µM | O=C(c1cccc(-c2ccc(Cl)cc2)c1)N1CCC(O)(Cn2cnn3cccc3c2=O)CC1
36 | 1 µM | CN(C)C(=O)c1ccc(-c2cccc(C(=O)N3CCC(O)(Cn4cnn5cccc5c4=O)CC3)c2)cc1
37 | 1 µM | O=C(c1ccc(F)cc1)N1CCC(O)(Cn2cnn3c(-c4ccc(F)cc4)ncc3c2=O)CC1
38 | 1 µM | O=C(c1ccc(Cn2ccnc2)cc1)N1CCC(O)(Cn2cnn3cccc3c2=O)CC1
39 | 1 µM | O=C(c1cccc(-c2cccc(F)c2)c1)N1CCC(O)(Cn2cnn3cccc3c2=O)CC1
40 | 1 µM | O=C(c1ccc(Cc2cccs2)cc1)N1CCC(O)(Cn2cnn3cccc3c2=O)CC1
41 | 1 µM | O=C(c1ccc(-c2cccc(C(=O)N3CCC(O)(Cn4cnn5cccc5c4=O)CC3)c2)cc1)N1CCCC1
42 | < 1 µM | CC(CC(=O)N1CCC(O)(Cn2cnn3cccc3c2=O)CC1)c1ccccc1 (stereo not drawn)
43 | 1 µM | O=C(c1cnc(C2CC2)o1)N1CCC(O)(Cn2cnn3c(-c4ccc(F)cc4)ncc3c2=O)CC1
44 | 1 µM | O=C(c1ccc(Sc2ccccc2)cc1)N1CCC(O)(Cn2cnn3cccc3c2=O)CC1
45 | 1 µM | O=C(c1ccc(-c2ccc(C(=O)N3CCC(O)(Cn4cnn5cccc5c4=O)CC3)c(C3CCCC3)c2)cc1)N1CCCC1
46 | 1 µM | O=C(c1ccc(-c2ccc3ncccc3c2)cc1)N1CCC(O)(Cn2cnn3cccc3c2=O)CC1
47 | 1 µM | Cc1ccc(OCC(=O)Nc2cc3c(=O)n(CC4(O)CCN(C(=O)C5CC5)CC4)cnn3c2)cc1C
48 | 1 µM | C=C(C)C(=O)Nc1ccccc1-c1ccc(C(=O)N2CCC(O)(Cn3cnn4cccc4c3=O)CC2)cc1
49 | < 1 µM | CNC(=O)Nc1cc2c(=O)n(CC3(O)CCN(C(=O)C[C@@H](C)c4ccccc4)CC3)cnn2c1
50 | 1 µM | O=C(c1cccc(-c2ccccc2)c1)N1CCC(O)(Cn2cnn3cccc3c2=O)CC1
51 | < 0.2 µM | C[C@H](CC(=O)N1CCC(O)(Cn2cnn3cccc3c2=O)CC1)c1ccccc1
52 | 1 µM | Cc1cc2c(=O)n(CC3(O)CCN(C(=O)C(C)Cc4ccccc4)CC3)cnn2c1 (stereo not drawn)
53 | 1 µM | O=C(c1ccc(-n2cccn2)cc1)N1CCC(O)(Cn2cnn3c(-c4ccc(F)cc4)ncc3c2=O)CC1
54 | 1 µM | O=C(c1ccccc1)N1CCC(O)(Cn2cnn3c(-c4ccccc4)ncc3c2=O)CC1
55 | 1 µM | O=C(COc1cccc(Cl)c1Cl)Nc1cc2c(=O)n(CC3(O)CCN(C(=O)C4CC4)CC3)cnn2c1
56 | < 0.2 µM | CC(CC(=O)N1CCC(O)(Cn2cnn3cccc3c2=O)CC1)n1cccc1 (stereo not drawn)
57 | 1 µM | COc1ccc(-c2cccc(C(=O)N3CCC(O)(Cn4cnn5cccc5c4=O)CC3)c2)cc1
58 | 1 µM | CC(C)(c1ccccc1)c1ccc(C(=O)N2CCC(O)(Cn3cnn4cccc4c3=O)CC2)cc1

What follows are molecules tested against T1, Ubiquitin carboxyl-terminal hydrolase 7 (assay: Inhibition of human USP7 using Ub-EKL as substrate).

Row | SMILES | EC50
59 | O=C(Nc1ccc2c(c1)S(=O)(=O)CC2NCCN1CCOCC1)c1nnc(Sc2c(Cl)cncc2Cl)s1 (stereo not drawn) | < 1 µM
60 | CN(C)CCCNC1CS(=O)(=O)c2cc(NC(=O)c3cnc(Sc4c(Cl)cncc4Cl)s3)ccc21 (stereo not drawn) | < 1 µM
61 | O=C(Nc1ccc2c(c1)S(=O)(=O)CC2)c1nnc(Sc2c(Cl)cncc2Cl)s1 | < 1 µM
62 | O=C(Nc1ccc2c(c1)S(=O)(=O)C=C2)c1cnc(Sc2ccncc2Cl)s1 | 5 µM
63 | O=C(Nc1ccc2c(c1)S(=O)(=O)C=C2)c1cnc(Sc2c(Cl)cncc2Cl)s1 | 2 µM
64 | CN(C(=O)c1nnc(Sc2c(Cl)cncc2Cl)s1)c1ccc2c(c1)S(=O)(=O)C=C2 | 1 µM
65 | O=C(Nc1ccc2c(c1)S(=O)(=O)C=C2)c1nnc(Sc2c(F)cncc2Cl)s1 | 5 µM
66 | CN(C)CCCOc1ccc(NC(=O)c2cnc(Sc3c(Cl)cncc3Cl)s2)cc1 | > 10 µM
67 | CNS(=O)(=O)c1ccc(NC(=O)c2nnc(Sc3c(Cl)cncc3Cl)s2)cc1 | < 1 µM
68 | CN(C)CCNC1CS(=O)(=O)c2cc(NC(=O)c3nnc(Sc4c(Cl)cncc4Cl)s3)ccc21 (stereo not drawn) | < 1 µM
69 | O=C(Nc1ccc2c(c1)S(=O)(=O)C=C2)c1sc(Sc2c(Cl)cncc2Cl)nc1C(F)(F)F | 5 µM
70 | CN(C)CCCOc1ccc(NC(=O)c2nnc(Sc3c(Cl)cncc3Cl)s2)cc1 | < 1 µM
71 | CN(C)CC(O)COc1ccc(NC(=O)c2nnc(Sc3c(Cl)cncc3Cl)s2)cc1 (stereo not drawn) | < 1 µM
72 | O=C(Nc1cccc(Cl)n1)c1nnc(Sc2c(Cl)cncc2Cl)s1 | < 1 µM

The remaining lines, values ahead:

Row | EC50 | SMILES
73 | < 1 µM | CN(C)CCCOc1ccc(NC(=O)c2nnc(Sc3c(Cl)cncc3Br)s2)cc1
74 | < 1 µM | O=C(Nc1ccc2c(c1)S(=O)(=O)C=C2)c1nnc(Sc2c(Cl)cncc2Cl)o1
75 | < 1 µM | O=C(Nc1ccc2c(c1)S(=O)(=O)C=C2)c1nnc(Sc2c(Cl)cncc2Cl)s1
76 | 1 µM | CS(=O)(=O)c1cccc(NC(=O)c2nnc(Sc3c(Cl)cncc3Cl)s2)c1
77 | 2 µM | COCCOCCN(C(=O)c1nnc(Sc2c(Cl)cncc2Cl)s1)c1ccc2c(c1)S(=O)(=O)CC2
78 | < 1 µM | CN(C)CCOc1cccc(NC(=O)c2nnc(Sc3c(Cl)cncc3Cl)s2)c1
79 | < 1 µM | O=C(Nc1cnccn1)c1nnc(Sc2c(Cl)cncc2Cl)s1
80 | 1 µM | Cc1nc2ccc(NC(=O)c3nnc(Sc4c(Cl)cncc4Cl)s3)cc2s1
81 | < 1 µM | O=C(Nc1ccc(NCCCN2CCOCC2)cc1)c1nnc(Sc2c(Cl)cncc2Cl)s1
82 | 1 µM | CC(=O)c1cccc(NC(=O)c2nnc(Sc3c(Cl)cncc3Cl)s2)c1
83 | 1 µM | CC1CS(=O)(=O)c2cc(NC(=O)c3nnc(Sc4c(Cl)cncc4Cl)s3)ccc21 (stereo not drawn)
84 | 2 µM | Cc1c(NC(=O)c2nnc(Sc3c(Cl)cncc3Cl)s2)ccc2c1S(=O)(=O)CC2
85 | 1 µM | O=C(Nc1ccc2c(c1)C(=O)CC2)c1nnc(Sc2c(Cl)cncc2Cl)s1
86 | 1 µM | O=C(Nc1cnc2ccccc2c1)c1nnc(Sc2c(Cl)cncc2Cl)s1
87 | 2 µM | Nc1ncc(Cl)c(Sc2nnc(C(=O)Nc3ccc4c(c3)S(=O)(=O)C=C4)s2)c1Cl
88 | < 1 µM | O=C(Nc1ccc2c(c1)S(=O)(=O)C=C2)c1nnc(Sc2c(Cl)cncc2Br)s1
89 | > 10 µM | O=C(Nc1ccc2c(c1)S(=O)(=O)C=C2)c1cnc(Sc2c(Cl)cncc2Cl)o1
90 | < 1 µM | CN(C)CCCNc1ccc(NC(=O)c2nnc(Sc3c(Cl)cncc3Cl)s2)cc1
91 | > 10 µM | CN(C)CCCOc1ccc(NC(=O)c2nnc(Sc3c(Cl)cncc3Cl)o2)cc1
92 | 2 µM | CC1CS(=O)(=O)c2cc(NC(=O)c3cnc(Sc4c(Cl)cncc4Cl)s3)ccc21 (stereo not drawn)
93 | > 10 µM | O=C(Nc1ccc2c(c1)S(=O)(=O)C=C2)c1nnc(Sc2c(Cl)cccc2Cl)s1
